The data set can be described thus: Elution of antibiotics from cured α-BSM cement ball into phosphate buffer. Conditions: other material used as carrier instead of the hydroxyapatite-like cement pastes. Format: physicochemical. Here is the method:
1 g of cement powder (α-BSM, WO 96/36562) and 0.7 ml of water in which 42 mg of gentamycin sulfate have been dissolved are mixed with one another. A paste is obtained by this means, which is shaped to give a ball of about 1 cm diameter. This ball is added at 37° C. to 20 ml of phosphate buffer according to Sörensen (pH 7.4). After approximately 10 minutes, the cement ball cures. At defined times, samples are taken from the buffer solution and the concentration of the antibiotic is determined microbiologically or chromatographically according to standard methods. The determined antibiotic concentrations in μg/ml correspond to the concentrations released in the buffer.
Analogously to Example 1, a previously cured ball of agar/gentamycin sulfate is eluted and the corresponding concentrations are measured.
Analogously to Example 1, an α-BSM/cefazolin ball is eluted and the corresponding concentrations are measured.
Analogously to Example 1, an α-BSM/netilmycin sulfate ball is eluted and the corresponding concentrations are measured.

The values below come from patent US6485754B1, “Bone cement paste containing an antibiotic” (Merck Patent GmbH, priority 1997, dated 2002).

For the substance gentamycin sulfate, the “release characteristics of the antibiotic (in words)” value is recorded as “released just as rapidly”.
